The results in this text go back to US20120129811A1, “TRICYCLIC INHIBITORS OF PRO-MATRIX METALLOPROTEINASE ACTIVATION” (priority 2010, published 2012).

Structures are written as SMILES. Counter-ions that a name gives are not always drawn.

Assay [1] deals with T1, proMMP9(20-445;ΔFnII) (SEQ ID NO:6) (Homo sapiens, UniProt P14780, DEL216-390).
T1 construct: start methionine (N); made in house; host or cells: E. coli BL21(DE3) RIL
T1 sequence (P14780 with tags, fused parts or gaps DEL216-390): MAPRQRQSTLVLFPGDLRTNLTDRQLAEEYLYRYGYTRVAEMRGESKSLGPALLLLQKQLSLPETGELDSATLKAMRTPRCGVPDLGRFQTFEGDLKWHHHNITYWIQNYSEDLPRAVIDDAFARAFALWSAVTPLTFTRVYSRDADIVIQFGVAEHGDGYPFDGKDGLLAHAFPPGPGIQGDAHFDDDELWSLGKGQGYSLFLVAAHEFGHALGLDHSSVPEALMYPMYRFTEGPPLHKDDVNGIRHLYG
The experiment in a line: ThermoFluor binding assay with proMMP9(20-445;ΔFnII). In outline: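 Protein thermal stability was measured with 2.8 μM proMMP9(20-445;ΔFnII) and 50 μM 1,8-ANS in 50 mM HEPES pH 7.0, 100 mM NaCl, 0.001% Tween-20, 2.5 mM MgCl2, 300 μM CaCl2, across serial compound dilutions. Samples were heated 40–90° C at 1° C/min with fluorescence read at 500 nm. Tm was fitted, and binding was derived from thermodynamic parameters obtained by DSC and ThermoFluor.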
In general terms: DSF heats the sample and reads unfolding from a dye or from intrinsic fluorescence.

For assay [2], the target named is T2, proMMP9(67-444;ΔFnII) (SEQ ID NO:5) (Homo sapiens, UniProt P14780, DEL216-390).
T2 construct: start methionine (N); made in house; host or cells: E. coli BL21(DE3) RIL
T2 sequence (P14780 with tags, fused parts or gaps DEL216-390): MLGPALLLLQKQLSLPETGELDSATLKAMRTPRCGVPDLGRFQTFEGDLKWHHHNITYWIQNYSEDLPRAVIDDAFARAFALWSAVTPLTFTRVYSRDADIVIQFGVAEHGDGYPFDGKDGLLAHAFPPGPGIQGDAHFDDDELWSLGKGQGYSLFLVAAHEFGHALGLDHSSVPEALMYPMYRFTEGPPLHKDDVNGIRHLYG
The experiment in a line: ThermoFluor binding assay with proMMP9(67-444;ΔFnII). The essentials:
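Thermal shift of 3.5 μM proMMP9(67-444;ΔFnII), desalted beforehand, with 50 μM 1,8-ANS in 50 mM HEPES pH 7.0, 100 mM NaCl, 2.5 mM MgCl2, 300 μM CaCl2, 0.001% Tween-20. Heated 40–90 °C at 1 °C/min, fluorescence read at 500 nm; binding fitted from Tm shifts using DSC- and ThermoFluor-derived unfolding parameters.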

Assay [3] addresses T3, full-length proMMP9(1-707) activation by catalytic MMP3 (Homo sapiens, UniProt P14780, R574P).
T3 construct: made in house; host or cells: proMMP9: HEK293 (secreted); MMP3: E. coli
The experiment in a line: proMMP9/MMP3 P126 Activation Assay. Type of assay: biochemical. The method, then: proMMP9/MMP3 P126 Activation Assay
The reaction volume was 50 μL. […] Reactivity of residual MMP3 towards P-126 substrate was minimal under these conditions.

T3 sequence (P14780 20-707 R574P): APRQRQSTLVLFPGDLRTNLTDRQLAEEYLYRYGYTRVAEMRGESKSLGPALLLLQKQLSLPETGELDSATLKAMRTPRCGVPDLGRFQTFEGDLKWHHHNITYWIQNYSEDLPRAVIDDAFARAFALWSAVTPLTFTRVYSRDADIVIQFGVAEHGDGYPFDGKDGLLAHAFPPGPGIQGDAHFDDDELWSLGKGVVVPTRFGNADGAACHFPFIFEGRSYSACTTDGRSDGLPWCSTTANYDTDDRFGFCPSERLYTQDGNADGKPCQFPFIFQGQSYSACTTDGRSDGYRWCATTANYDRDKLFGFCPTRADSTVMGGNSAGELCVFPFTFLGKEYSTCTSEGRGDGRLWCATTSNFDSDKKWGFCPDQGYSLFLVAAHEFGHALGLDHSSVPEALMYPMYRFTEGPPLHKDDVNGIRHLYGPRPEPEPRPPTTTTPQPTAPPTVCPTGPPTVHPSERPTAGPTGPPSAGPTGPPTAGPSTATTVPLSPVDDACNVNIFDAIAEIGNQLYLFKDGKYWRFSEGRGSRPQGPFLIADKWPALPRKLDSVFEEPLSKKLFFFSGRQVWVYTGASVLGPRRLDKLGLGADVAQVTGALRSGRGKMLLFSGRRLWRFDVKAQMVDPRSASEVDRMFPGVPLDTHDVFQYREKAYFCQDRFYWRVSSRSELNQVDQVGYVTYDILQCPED

`COc1ccccc1Nc1nc2c(ccc3ncn(C)c32)s1` [Example 132, (2-Methoxy-phenyl)-(8-methyl-8H-imidazo[4′,5′:3,4]benzo[2,1-d]thiazol-2-yl)-amine.TFA]: the Kd (in general, a measure of binding affinity in units of concentration) is over 95 µM in assay [1] and 26 µM in assay [2]. In addition, the IC50 – broadly, the concentration at which inhibition is half-maximal – in assay [3] came out at 1.4 µM.

In the case of `CCn1c(C)nc2ccc3sc(Nc4cc(S(C)(=O)=O)ccc4OC)nc3c21` [Example 133, (8-Ethyl-7-methyl-8H-imidazo[4′,5′:3,4]benzo[2,1-d]thiazol-2-yl)-(5-methanesulfonyl-2-methoxy-phenyl)-amine.TFA], the Kd in assay [1] turned out to be 1.3 µM; in assay [2], 0.31 µM. In assay [3], this compound registered an IC50 of 0.28 µM.

As to `COc1ccc(S(C)(=O)=O)cc1Nc1nc2c(ccc3nc(C)n(C)c32)s1` [Example 134, (7,8-Dimethyl-8H-imidazo[4′,5′:3,4]benzo[2,1-d]thiazol-2-yl)-(5-methanesulfonyl-2-methoxy-phenyl)-amine.TFA], the results for the Kd in assay [1] and in assay [2] were 1.6 µM and 0.9 µM, respectively. The compound also registered a concentration for half-maximal inhibition (IC50) in assay [3] of 0.26 µM.

As for `COc1ccc(S(C)(=O)=O)cc1Nc1nc2c(ccc3ncn(C)c32)s1` [Example 135, (5-Methanesulfonyl-2-methoxy-phenyl)-(8-methyl-8H-imidazo[4′,5′:3,4]benzo[2,1-d]thiazol-2-yl)-amine.TFA], the figures for the Kd in assay [1] and in assay [2] were over 95 µM and 0.64 µM, respectively. In assay [3], this compound yielded an IC50 of 0.27 µM.

For `Cc1nc2ccc3sc(Nc4cc(S(N)(=O)=O)ccc4OC(C)C)nc3c2n1CC(F)(F)F` [Example 136, 4-Isopropoxy-3-[7-methyl-8-(2,2,2-trifluoro-ethyl)-8H-imidazo[4′,5′:3,4]benzo[2,1-d]thiazol-2-ylamino]-benzenesulfonamide.TFA], the values for the Kd in assay [1] and in assay [2] were 0.77 µM and 0.59 µM, respectively. The same compound came in with an IC50 in assay [3] of 1.1 µM.

For the compound `CC(C)Oc1ccc(S(N)(=O)=O)cc1Nc1nc2c(ccc3ncn(CC(F)(F)F)c32)s1` [Example 137, 4-Isopropoxy-3-[8-(2,2,2-trifluoro-ethyl)-8H-imidazo[4′,5′:3,4]-benzo[2,1-d]thiazol-2-ylamino]-benzenesulfonamide.TFA], the figures for the Kd in assay [1] and in assay [2] were 0.44 µM and 0.63 µM, respectively. For the same compound, the IC50 in assay [3] came to 1.1 µM.

Consider `COc1ccc(S(C)(=O)=O)cc1Nc1nc2c(ccc3nc(C)n(CC(F)(F)F)c32)s1` [Example 138, (5-Methanesulfonyl-2-methoxy-phenyl)-[7-methyl-8-(2,2,2-trifluoro-ethyl)-8H-imidazo[4′,5′:3,4]benzo[2,1-d]thiazol-2-yl]-amine.TFA], for which the Kd is 0.69 µM in assay [1] and 0.48 µM in assay [2]. In assay [3], this compound had an IC50 of 0.56 µM.

`CCn1c(C)nc2ccc3sc(Nc4cc(F)ccc4OC(C)C)nc3c21` [Example 139, (8-Ethyl-7-methyl-8H-imidazo[4′,5′:3,4]benzo[2,1-d]thiazol-2-yl)-(5-fluoro-2-isopropoxy-phenyl)-amine.TFA]: the values for the Kd in assay [1] and in assay [2] were over 95 µM and 0.96 µM, respectively. Further, the IC50 in assay [3] was 0.33 µM.

Regarding `Cc1nc2ccc3sc(Nc4cc(F)ccc4OC(C)C)nc3c2n1C` [Example 140, (7,8-Dimethyl-8H-imidazo[4′,5′:3,4]benzo[2,1-d]thiazol-2-yl)-(5-fluoro-2-isopropoxy-phenyl)-amine.TFA], the Kd in assay [1] was over 95 µM; in assay [2], 0.81 µM. The compound also displayed an IC50 in assay [3] of 0.41 µM.

With `Cc1nc2ccc3sc(Nc4cc(F)ccc4OC(C)C)nc3c2n1CC(F)(F)F` [Example 141, (5-Fluoro-2-isopropoxy-phenyl)-[7-methyl-8-(2,2,2-trifluoro-ethyl)-8H-imidazo[4′,5′:3,4]benzo[2,1-d]thiazol-2-yl]-amine.TFA], the dissociation constant Kd in assay [1] is 33 µM; in assay [2] it was 7.5 µM. This compound also registered an IC50 in assay [3] of 1.3 µM.

Consider `CC(C)Oc1ccc(F)cc1Nc1nc2c(ccc3ncn(CC(F)(F)F)c32)s1` [Example 142, (5-Fluoro-2-isopropoxy-phenyl)-[8-(2,2,2-trifluoro-ethyl)-8H-imidazo[4′,5′:3,4]-benzo[2,1-d]thiazol-2-yl]-amine.TFA], for which the Kd in assay [1] was over 95 µM; in assay [2], 2.4 µM. In assay [3], this compound came in with a half-maximal inhibitory concentration (IC50) of 1.8 µM.

Turning to `CCn1c(C)nc2ccc3sc(Nc4cc(S(C)(=O)=O)ccc4OC(C)C)nc3c21` [Example 143, (8-Ethyl-7-methyl-8H-imidazo[4′,5′:3,4]benzo[2,1-d]thiazol-2-yl)-(2-isopropoxy-5-methanesulfonyl-phenyl)-amine.TFA], the Kd was found to be 1.2 µM in assay [1] and 0.26 µM in assay [2]. Moreover, in assay [3], the IC50 worked out at 0.16 µM.

With `Cc1nc2ccc3sc(Nc4cc(S(C)(=O)=O)ccc4OC(C)C)nc3c2n1C` [Example 144, (7,8-Dimethyl-8H-imidazo[4′,5′:3,4]benzo[2,1-d]thiazol-2-yl)-(2-isopropoxy-5-methanesulfonyl-phenyl)-amine.TFA], the equilibrium dissociation constant (Kd) in assay [1] was determined as 0.88 µM; in assay [2], 0.66 µM. In addition, in assay [3], the IC50 turned out to be 0.26 µM.

Turning to `Cc1nc2ccc3sc(Nc4cc(S(C)(=O)=O)ccc4OC(C)C)nc3c2n1CC(F)(F)F` [Example 145, (2-Isopropoxy-5-methanesulfonyl-phenyl)-[7-methyl-8-(2,2,2-trifluoro-ethyl)-8H-imidazo[4′,5′:3,4]benzo[2,1-d]thiazol-2-yl]-amine.TFA], the Kd turned out to be 2.5 µM in assay [1] and 0.56 µM in assay [2]. Also, the midpoint of inhibition in assay [3], the IC50, lay at 0.39 µM.

For the compound `CC(C)Oc1ccc(S(C)(=O)=O)cc1Nc1nc2c(ccc3ncn(CC(F)(F)F)c32)s1` [Example 146, (2-Isopropoxy-5-methanesulfonyl-phenyl)-[8-(2,2,2-trifluoro-ethyl)-8H-imidazo[4′,5′:3,4]-benzo[2,1-d]thiazol-2-yl]-amine.TFA], the Kd worked out at 3.1 µM in assay [1] and 0.64 µM in assay [2]. Inhibition in assay [3] was half-maximal at 0.8 µM (IC50).

As to `CC(C)Oc1ccc(S(C)(=O)=O)cc1Nc1nc2c(ccc3c2ncn3C)s1` [Example 147, (2-Isopropoxy-5-methanesulfonyl-phenyl)-(6-methyl-6H-imidazo[4′,5′:3,4]benzo[2,1-d]thiazol-2-yl)-amine.TFA], the Kd in assay [1] worked out at 1.4 µM; in assay [2], 0.4 µM. Half-maximal inhibition in assay [3] (IC50) required 0.22 µM.

For `COc1ccncc1Nc1nc2c(ccc3nc(C)n(CC(F)(F)F)c32)s1` [Example 148, (4-Methoxy-pyridin-3-yl)-[7-methyl-8-(2,2,2-trifluoro-ethyl)-8H-imidazo[4′,5′:3,4]benzo[2,1-d]thiazol-2-yl]-amine.TFA], the Kd was 0.86 µM in assay [1] and 0.29 µM in assay [2]. This compound yielded an IC50 in assay [3] of 0.22 µM.

With `COc1ccncc1Nc1nc2c(ccc3c2ncn3C)s1` [Example 149, (4-Methoxy-pyridin-3-yl)-(6-methyl-6H-imidazo[4′,5′:3,4]benzo[2,1-d]thiazol-2-yl)-amine.TFA], the dissociation constant Kd in assay [1] is 1 µM; in assay [2], 0.039 µM. Further, the midpoint of inhibition in assay [3], the IC50, lay at 0.11 µM.

With `COc1ccc(S(C)(=O)=O)cc1Nc1nc2c(ccc3cnn(C)c32)s1` [Example 150, (5-Methanesulfonyl-2-methoxy-phenyl)-(1-methyl-1H-6-thia-1,2,8-triaza-as-indacen-7-yl)-amine.TFA], the figures for the Kd in assay [1] and in assay [2] were 8.8 µM and 1.2 µM, respectively. The compound further came in with an IC50 in assay [3] of 0.34 µM.

Consider `COc1ccncc1Nc1nc2c(ccc3ncn(CC(F)(F)F)c32)s1` [Example 153, N-(4-Methoxypyridin-3-yl)-8-(2,2,2-trifluoroethyl)-8H-imidazo[4′,5′:5,6]-benzo[1,2-d]thiazol-2-amine], for which the Kd in assay [1] is 1.4 µM; in assay [2] it was 0.6 µM. Moreover, half-maximal inhibition in assay [3] (IC50) required 0.65 µM.

Consider `COc1ccncc1Nc1nc2c(ccc3nc(C)n(C)c32)s1` [Example 154, N-(4-Methoxypyridin-3-yl)-7,8-dimethyl-8H-imidazo[4′,5′:5,6]benzo[1,2-d]thiazol-2-amine.TFA], for which the dissociation constant Kd in assay [1] was found to be 6.6 µM; in assay [2] it was 1.1 µM. This compound registered an IC50 in assay [3] of 0.63 µM.

For the compound `CCOc1ccncc1Nc1nc2c(ccc3nc(C)n(CC)c32)s1` [Example 155, N-(4-Ethoxypyridin-3-yl)-8-ethyl-7-methyl-8H-imidazo[4′,5′:5,6]benzo[1,2-d]thiazol-2-amine.TFA], the Kd amounted to 0.72 µM in assay [1] and 0.14 µM in assay [2]. This compound also registered an IC50 in assay [3] of 0.15 µM.
